# Assay results published in patent US5192799A, “Coumaran group containing amine compounds and their acid addition salts and quaternary ammonium salts and the use thereof as anti arrhythmic agents and as psychotropic agents” (Mitsui Petrochemical Industries, Ltd., priority 1987, dated 1993).
# Experiments:
# [1] = tested on: Purkinje fiber; assay: Effect on APD (APD75, field-stimulated right ventricular free wall); type: cell-based, adult mongrel dog; conditions: 20 minutes incubation, 37° C., 1 Hz, control before drug = 100%; for activation at 1 µg/mL / activation at 3 µg/mL / activation at 10 µg/mL: Canis lupus familiaris, purkinje, 20 min, read-out: APD75 % (percent change in APD75)
# Description: The pharmacological effects of the compounds of this invention represented by general formula (1) were studied. By using the heart of an adult mongrel dog, the activity of the compounds of general formula (1) were tested in vitro and in vivo. The heart of an anaethetized dog was extracted and suspended in a chamber at 37° C. in Tyrode's solution. The drug was added to Tyrode's solution being perfused through the heart specimen, and electrophysiological effects of the drug on cardiac action potential duration (APD) and maximum rate of depolarization were studied. An anaethetized dog was cut open at the chest.
# An adult mongrel dog was anaethetized with intravenous administration of pentobarbital, 30 mg/kg. The heart was quickly removed, and the right ventricular free wall was dissected in the Tyrode's solution. The right ventricular free wall was fixed within an incubator at 37° C., and field stimulation at 1 Hz was carried out. Intracellular potentials were measured by piercing glass microelectrodes (10-20 megaohms) into the Purkinje fiber and the wave form of cardiac action potential drawn on an oscilloBraun tube via an amplifier was analyzed by a computer. Value of APD was obtained at 75% of full repolarization (APD75). The drug was added to Tyrode's solution (20 ml) perfused through the specimen. The effect of the drug was expressed by a percent change in APD75 after incubation for 20 minutes with the control value of APD before application of the drug being taken as 100%.
# [2] = in vivo; conditions: mouse, in vivo, po, LD50 p.o., p.o., 24 hours after administration, male ddY mice
# Description: By using male ddY-strain 5-week old mice (3 to 4 per group), the compounds of general formula (1) were each administered orally or intraperitoneally as a solution in saline or as a suspension in methyl cellulose, and 24 hours after the administration, the toxicity of the compounds was evaluated.
# [3] = tested on: right ventricle (effective refractory period); assay: Activity on ERP of the right ventricle; type: in vivo, adult mongrel dog; conditions: Canis lupus familiaris, iv, ERP before drug = 100%, read-out: ERP % (ERP prolonging activity); for change in vivo at 0.1 mg/kg: 0.1 mg/kg i.v.; for change in vivo at 0.3 mg/kg: 0.3 mg/kg i.v.; for change in vivo at 1 mg/kg: 1 mg/kg i.v.; for change in vivo at 3 mg/kg: 3 mg/kg i.v.
# Description: The pharmacological effects of the compounds of this invention represented by general formula (1) were studied. By using the heart of an adult mongrel dog, the activity of the compounds of general formula (1) were tested in vitro and in vivo. The heart of an anaethetized dog was extracted and suspended in a chamber at 37° C. in Tyrode's solution. The drug was added to Tyrode's solution being perfused through the heart specimen, and electrophysiological effects of the drug on cardiac action potential duration (APD) and maximum rate of depolarization were studied. An anaethetized dog was cut open at the chest. […] In an anaethetized and open-chested adult mongrel dug, a silver-silver chloride electrode was sutured to the right ventricle, and ventricular pacing was performed at a stimulation interval of 400 msec for a duration time of 4 msec, twice diastolic threshold. Then, a small amount of alcohol was injected through the sinus artery to extinguish the pacemaker activity, and under ventricular pacing, ERP was measured. Ten stimulations were taken as one train, and the interval between trains when the response to the first stimulation disappeared was defined as ERP. […] ERP before drug administration (intravenously or intraduodenally) was taken as 100%, and ERP prolonging activity of the drugs was expressed by %.
Structure (SMILES),activation at 1 µg/mL ([1]; dose 1 μg/ml) [%],activation at 3 µg/mL ([1]; dose 3 μg/ml) [%],activation at 10 µg/mL ([1]; dose 10 μg/ml) [%],also measured
O=C1COc2cc(OCCCN[C@@H]3C[C@H]4CC[C@@H]3C4)ccc21 (relative stereo) [Compound 168],0,3,–,–
O=C1COc2cc(OCCCN3CCCCC3)ccc21 [Compound 1110],–,–,–,LD50 at 24 h [2]: > 300 mg/kg; APD75 % (percent change in APD75) ([1]; dose 3 μg/ml): 10%; APD75 % (percent change in APD75) ([1]; dose 10 μg/ml): 20%
O=C1COc2cc(OCCC[n+]3ccc(-c4ccccc4)cc3)ccc21 [Compound 1404],–,–,–,LD50 at 24 h [2]: > 300 mg/kg
CC[N+]1(CCCOc2ccc3c(c2)OCC3=O)CCCC(C)C1 (stereo not drawn) [Compound 1119],–,4,–,–
CCCCCCC[N+](CC)(CC)CCCOc1ccccc1C=CC(C)=O [Compound 1022],0,11,18,–
O=C1COc2cc(OCCCN3CCCC(CO)C3)ccc21 (stereo not drawn) [Compound 1214],–,4,–,–
"CCCCCCC[N+](CC)(CC)CCCCc1ccc(Cl)cc1 [Clofilium, reference compound]",–,–,15,change in vivo at 0.1 mg/kg [3]: 7 ± 1.3%; change in vivo at 0.3 mg/kg [3]: 15.2 ± 2.4%; change in vivo at 1 mg/kg [3]: 22.4 ± 1.6%
COCCN(CCCOc1ccc2c(c1)OCC2=O)CCOC [Compound 276],5,12,23,change in vivo at 0.1 mg/kg [3]: 0%; change in vivo at 0.3 mg/kg [3]: 0%; change in vivo at 1 mg/kg [3]: 7%; change in vivo at 3 mg/kg [3]: 7%
CCCCCCC[N+](CC)(CC)CCCOc1cccc2c1OCC2=O [Compound 295],–,–,–,LD50 at 24 h [2]: > 300 mg/kg
CCCN(CCCOc1ccc2c(c1)OCC2=O)CCC(=O)OCC [Compound 281],–,–,–,LD50 at 24 h [2]: > 300 mg/kg
CCCCCCC[N+](CC)(CC)CCCOc1cccc2ccc(=O)oc12 [Compound 632],–,44,18,LD50 at 24 h [2]: > 300 mg/kg
CCN(CCCCCCO)CCCOc1ccc2c(c1)OCC2=O [Compound 188],17,19,19,LD50 at 24 h [2]: > 300 mg/kg
C=CC[N+](CC)(CCCOc1ccc2c(c1)OCC2=O)C1CCCCC1 (stereo not drawn) [Compound 294],–,11,35,–
CC(=O)NC1CCN(CCCOc2ccc3c(c2)OCC3=O)CC1 [Compound 1302],–,5,13,LD50 at 24 h [2]: > 300 mg/kg
CCCCCCCN(CC)CCCOc1ccc2c(c1)OCC2=O [Compound 104],–,–,–,APD75 % (percent change in APD75) ([1]; dose 1 μg/ml): 21%; APD75 % (percent change in APD75) ([1]; dose 3 μg/ml): 30%
O=C1COc2cc(OCCCN3CCCC3)ccc21 [Compound 1102],–,6,–,–
CCCCCCCN(CC)CCCOc1ccc2sc(=O)oc2c1 [Compound 952],0,3,7,–
C=CCN(CCCOc1ccc2c(c1)OCC2=O)C1CCCCC1 [Compound 160],0,7,11,LD50 at 24 h [2]: > 300 mg/kg
CCCCCCC[N+](CC)(CC)CCCOc1ccc2c(c1OC)OCC2=O [Compound 289],7,8,–,–
CCCN(CCCOc1ccc2c(c1)OCC2=O)CCOC [Compound 180],5,11,15,–
CCCCCCC[N+](CC)(CC)CCCOc1ccc2c(c1)CCC2 [Compound 770],0,7,–,–
CCCCCCC[N+](CC)(CC)CCCOc1ccc2ccc(=O)oc2c1 [Compound 638],0,7,–,–
CCCC1CCCCN1CCCOc1ccc2c(c1)OCC2=O (stereo not drawn) [Compound 1134],7,9,–,–

Structure (SMILES),activation at 1 µg/mL ([1]; dose 1 μg/ml) [%],activation at 3 µg/mL ([1]; dose 3 μg/ml) [%],activation at 10 µg/mL ([1]; dose 10 μg/ml) [%],also measured
CCCCCCC[N+](CC)(CC)CCCOc1ccc2c(c1)OCC2 [Compound 422],0,3,–,–
CCCCCCCN(CC)CCCOc1ccc2c(c1)OCC2=O [Compound 100],21,31,–,–
CCCCCN(CC)CCCOc1ccc2c(c1)OCC2=O [Compound 108],0,2,–,–
CCCCCCC[N+](CC)(CC)CCCOc1ccc2c(c1)OC(C)(CC)CC2=O (stereo not drawn) [Compound 820],4,5,–,–
CCCCN(CCCC)CCOc1ccc2c(c1)OCC2=O [Compound 204],3,7,8,–
CCCCCCC[N+](CC)(CC)CCCOc1cc(OC)c2c(c1)OCC2=O [Compound 290],–,11,35,–
O=C1CCc2cc(OCCC[N+]34CN5CN(CN(C5)C3)C4)ccc21 [Compound 1400],–,–,–,LD50 at 24 h [2]: > 300 mg/kg
CCCC[N+](CCCC)(CCCC)CCCOc1ccc2c(c1)OCC2=O [Compound 293],0,4,–,–
CCCCCCCN(CC)CCCOc1ccc2c(c1)OC(C)(CC)C2C (stereo not drawn) [Compound 404],–,4,–,–
CC1CCN(CCCOc2ccc3c(c2)OCC3=O)C1 (stereo not drawn) [Compound 1106],–,8,13,–
C[C@H]1C[C@H](C)CN(CCCOc2ccc3c(c2)OCC3=O)C1 (relative stereo) [Compound 1129],–,7,–,–
O=C1COc2cc(OCCCN3CCOCC3)ccc21 [Compound 1166],4,6,–,–
O=C1COc2cc(OCCCN3CC4CCC(CC4)C3)ccc21 [Compound 1198],4,6,–,–
CCN(CCCOc1ccc2c(c1)OCC2=O)C12CC3CC(CC(C3)C1)C2 [Compound 172],0,8,–,–
CSC(=NC#N)N(C)CCCOc1ccc2c(c1)OCC2=O [Compound 271],–,–,–,LD50 at 24 h [2]: > 300 mg/kg
CS(=O)(=O)Nc1ccc(C2CCN(CCCOc3ccc4c(c3)OCC4=O)CC2)cc1 [Compound 1304],–,–,–,LD50 at 24 h [2]: > 300 mg/kg
"CCCCCCCN(CC)CC(O)COc1ccc2c(c1)OCC2=O (stereo not drawn) [Compound 214, 6-[3-(N-ethyl-N-heptylamino)-2-hydroxypropyloxy]coumaran-3-one]",15,15,–,–
CCCCCCC[N+](CC)(CC)CC(O)COc1ccc2c(c1)OCC2=O (stereo not drawn) [Compound 292],15,25,28,change in vivo at 0.1 mg/kg [3]: 8%; change in vivo at 0.3 mg/kg [3]: 8%; change in vivo at 1 mg/kg [3]: 8%
"CC(C)NCC(O)c1ccc(NS(C)(=O)=O)cc1 (stereo not drawn) [Sotalol, reference compound]",–,–,–,change in vivo at 0.1 mg/kg [3]: 1.7 ± 1.7%; change in vivo at 0.3 mg/kg [3]: 6.7 ± 0.9%; change in vivo at 1 mg/kg [3]: 8.7 ± 1.2%; change in vivo at 3 mg/kg [3]: 15.5 ± 0.5%
O=C1COc2cc(OCCCN3CCCCC3)ccc21 [Compound 1108],0,7,–,APD75 % (percent change in APD75) ([1]; dose 10 μg/ml): 9%
CC(C)NCC(O)COc1ccc2c(c1)OCC2=O (stereo not drawn) [Compound 272],–,8,10,–
C=CCc1ccccc1OCC(O)C[N+](C)(C)C(C)C (stereo not drawn) [Compound 1020],10,14,19,–
CCCCCCC[N+](CC)(CC)CCCOc1ccc2c(C)c(C)c(=O)oc2c1 [Compound 634],4,7,11,–
